Columns and labels:
Estrogen receptor beta [1] = target: T1, Estrogen receptor beta (Homo sapiens, UniProt Q92731)
Description: Binding affinity towards human recombinant Estrogen receptor beta was determined

Estrogen receptor [2] = target: T2, Estrogen receptor (Homo sapiens, UniProt P03372)
T2 sequence (P03372 whole entry): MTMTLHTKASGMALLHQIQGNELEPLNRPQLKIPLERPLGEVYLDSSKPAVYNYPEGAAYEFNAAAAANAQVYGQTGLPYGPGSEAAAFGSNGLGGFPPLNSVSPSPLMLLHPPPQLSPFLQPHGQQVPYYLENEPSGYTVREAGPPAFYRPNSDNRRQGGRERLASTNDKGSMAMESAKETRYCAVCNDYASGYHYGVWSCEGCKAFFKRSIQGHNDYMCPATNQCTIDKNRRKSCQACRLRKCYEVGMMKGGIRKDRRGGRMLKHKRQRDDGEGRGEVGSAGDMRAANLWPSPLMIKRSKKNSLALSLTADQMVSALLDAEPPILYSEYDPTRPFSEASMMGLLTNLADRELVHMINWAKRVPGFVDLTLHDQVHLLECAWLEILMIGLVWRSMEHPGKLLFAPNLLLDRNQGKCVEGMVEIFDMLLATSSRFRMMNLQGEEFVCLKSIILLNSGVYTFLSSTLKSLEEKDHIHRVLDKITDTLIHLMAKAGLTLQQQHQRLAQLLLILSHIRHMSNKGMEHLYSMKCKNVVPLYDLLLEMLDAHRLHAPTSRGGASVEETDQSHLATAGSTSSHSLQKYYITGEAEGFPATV
Description: Binding affinity towards human recombinant Estrogen receptor alpha was determined

[3] = target: T3, Estrogen receptor (Rattus norvegicus) (UniProt P06211+Q62986); conditions: at 1 mg/kg
Description: Anti-uterotrophic activity in rats after 1 mg/kg subcutaneous dose for 3 days without estradiol

[4] = target: T3, Estrogen receptor (Rattus norvegicus); conditions: at 1 mg/kg; remark: listed apart in the source
Description: (§1) Anti-uterotrophic activity in rats after 1 mg/kg subcutaneous dose for 3 days with estradiol

[5] = target: T3, Estrogen receptor (Rattus norvegicus); conditions: Uterus, at 1 mg/kg
Description: Uterotrophic activity in rats after 1 mg/kg peroral dose for 3 days without estradiol

[6] = target: T3, Estrogen receptor (Rattus norvegicus); conditions: Uterus, at 0.3 mg/kg
Description: Uterotrophic activity in rats after 0.3 mg/kg peroral dose for 3 days with estradiol

[7] = target: T3, Estrogen receptor (Rattus norvegicus); conditions: at 1 mg/kg; remark: listed apart in the source
Description: as §1

Estrogen receptor beta [8] = target: T1, Estrogen receptor beta; assay: biochemical
Description: In vitro binding affinity for Estrogen receptor beta in HEK293 cells

Estrogen receptor [9] = target: T2, Estrogen receptor; assay: In vitro binding affinity for Estrogen receptor alpha in HEK293 cells; format: cell-based

T1 sequence (Q92731 whole entry): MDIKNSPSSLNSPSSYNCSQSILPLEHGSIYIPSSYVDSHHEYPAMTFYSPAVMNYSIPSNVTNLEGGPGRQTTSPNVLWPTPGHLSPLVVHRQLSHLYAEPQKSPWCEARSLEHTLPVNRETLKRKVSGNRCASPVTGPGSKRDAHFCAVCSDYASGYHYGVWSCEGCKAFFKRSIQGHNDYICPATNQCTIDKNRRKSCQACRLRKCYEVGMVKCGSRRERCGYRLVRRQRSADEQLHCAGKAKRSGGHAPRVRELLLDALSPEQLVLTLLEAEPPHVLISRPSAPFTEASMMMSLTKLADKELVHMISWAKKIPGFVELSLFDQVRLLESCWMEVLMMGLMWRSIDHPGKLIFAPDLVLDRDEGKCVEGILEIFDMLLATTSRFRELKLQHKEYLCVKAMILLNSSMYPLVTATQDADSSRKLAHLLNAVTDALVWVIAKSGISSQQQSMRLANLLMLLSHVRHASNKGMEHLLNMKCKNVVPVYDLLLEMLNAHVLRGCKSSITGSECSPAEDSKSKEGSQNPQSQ

| SMILES | IC50 (Estrogen receptor beta [1]) | IC50 (Estrogen receptor [2]) | inhibition [4] | other results |
| --- | --- | --- | --- | --- |
| Oc1ccc([C@@H]2Sc3ccccc3O[C@@H]2c2ccc(OCCN3CCCCC3)cc2)cc1 | 70 nM | 10 nM |  |  |
| Oc1ccc([C@@H]2Sc3ccc(O)cc3O[C@@H]2c2ccc(OCCN3CCCCC3)cc2)cc1 | 45 nM | 1.6 nM |  |  |
| O=S1(=O)c2cc(O)ccc2O[C@H](c2ccc(OCCN3CCCCC3)cc2)[C@@H]1c1ccc(O)cc1 | 5950 nM | 1090 nM |  |  |
| [O-][S+]1c2cc(O)ccc2O[C@H](c2ccc(OCCN3CCCCC3)cc2)[C@@H]1c1ccc(O)cc1 (stereo partly specified) | > 100000 nM | > 100000 nM |  |  |
| Oc1ccc([C@H]2Sc3cc(O)ccc3O[C@H]2c2ccc(OCCN3CCCCC3)cc2)cc1 |  |  |  | Control [5]: 9%; inhibition [6]: 11.4%; inhibition [7]: 0.4% |
| O=C1c2ccc(O)cc2O[C@H](c2ccc(OCCN3CCCCC3)cc2)[C@@H]1c1ccc(O)cc1 | 2730 nM | 39 nM |  |  |
| Oc1ccc2c(c1)S[C@@H](c1ccccc1)[C@@H](c1ccc(OCCN3CCCCC3)cc1)O2 | 183 nM | 6.2 nM |  |  |
| Oc1ccc(C2=C(c3ccc(OCCN4CCCCC4)cc3)Oc3ccc(O)cc3S2)cc1 | 5.1 nM | 1.6 nM | 55% | IC50 (Estrogen receptor beta [8]): 159 nM; Control [3]: 45%; IC50 (Estrogen receptor [9]): 5.1 nM |

Now from value to compound, other results behind:

| IC50 (Estrogen receptor beta [1]) | IC50 (Estrogen receptor [2]) | inhibition [4] | SMILES | other results |
| --- | --- | --- | --- | --- |
|  |  | 77% | Oc1ccc([C@@H]2Sc3cc(O)ccc3O[C@H]2c2ccc(OCCN3CCCCC3)cc2)cc1 (racemic) | Control [3]: 5% |
|  |  | 16% | Oc1ccc([C@@H]2Sc3cc(O)ccc3O[C@@H]2c2ccc(OCCN3CCCCC3)cc2)cc1 (stereo in doubt; 4-L) |  |
|  |  | 18% | Oc1ccc([C@@H]2Sc3cc(O)ccc3O[C@@H]2c2ccc(OCCN3CCCCC3)cc2)cc1 (racemic) | Control [3]: 20% |
